Legend:
SIRT6 [1] = biological target: T1, SIRT6 (Homo sapiens, UniProt Q8N6T7); test: Secondary validation assays: HPLC deacylation, fluorometric deacetylation, in vitro histone deacetylation; format: biochemical; conditions: values only in FIGS. 1-3
Description: The activating effect of three compounds (ChemDiv ID E677-1326, E677-0945 and D715-0284) for SIRT6 was validated by conducting the following secondary assays. As previously described, D715-0284 is a stereoisomer of molecule 768382-41-8.
1. HPLC deacylation assay. SIRT6 was incubated with compounds and myristoyl-lysine peptide (corresponding to TNF-alpha sequence) at 37° C. The deacylation reactions were analyzed by reversed phase high-performance liquid chromatography on Kinetex C18 column by monitoring the formation of the deacylated product at 214 nm. […] Equally diluted DMSO served as control.
2. Fluorometric deacetylation assay. SIRT6 was incubated with compounds and fluorophore-labelled acetyl-lysine peptide (corresponding to histone H3 sequence) at 37° C. […] Results are expressed as a percentage of DMSO—treated control.
3. In vitro histone deacetylation assay. Chromatin was purified from HEK293T cells by two steps of lysis (with Nonidet P-40 lysis buffer). SIRT6 was incubated with chromatin proteins and the reaction mixture is then used for Western blot analysis. […] SIRT6 (0.5 μM) was incubated with chromatin fractions isolated from HEK293T cells in the presence of 10 micromolar NAD+ and compound D715-0284 or DMSO (control) at 37° C.

SIRT6 [2] = biological target: T1, SIRT6; test: SIRT6 enzymatic activity assay with fluorophore (AMC)-labeled Lysin-myristoylated histone H3 peptide (de-myristoylation, trypsin release); format: biochemical; parameters: six-histidine tag; made in house; host or cells: Escherichia coli BL21; conditions: for % activity 20 uM: compound 20 uM; for % activity 20 uM / % activity Max. conc. 100 uM: percentage of signal increase relative to control wells, Tables 1-2; for % activity Max. conc. 100 uM: compound 100 uM; for % Activity: amount tested 20 uM, Example 5, Table 9
Description: Human recombinant SIRT6 (sequence identifier: CAG33481.1; GI:4814651) was expressed in large scale in Escherichia coli strain BL21 as a six-histidine-tagged protein, after transformation of the expression plasmid pET28-SIRT6. The SIRT6 enzyme was purified from the bacteria culture broth in a two-step strategy. The first purification step was carried out by cation exchange chromatography on a HiTrap CM-Sepharose column (GE Healthcare) using an FPLC system. The second purification step was performed by immobilized metal ion affinity chromatography (IMAC) using a cobalt affinity column (Clontech).
The enzymatic activity assay is carried out in 96 or 384-well microplates using the purified recombinant SIRT6 and a fluorophore-labeled peptide substrate: 7-amino-4-methylcoumarin (AMC) that is quenched through conjugation to the C-terminal end of a Lysin-myristoylated histone H3 peptide. The activity assay procedure requires two steps, both performed in the same microplate. In the first step, the substrate is incubated with the purified SIRT6 protein along with the co-substrate nicotinamide adenine dinucleotide (NAD+). Upon de-myristoylation, the liberated ε-amino group of the lysine becomes a trypsin substrate. Treatment with trypsin in the second step releases the fluorophore resulting in an increase in fluorescence. Fluorescence intensity is measured using a fluorescent plate reader (excitation and emission at 370 nm and 450 nm, respectively). The fluorescence signal is directly proportional to SIRT6 enzymatic activity.
In the primary screening, compounds from a library (ChemDiv Inc.) were tested at a single concentration of 20 micromolar for their potential to modulate SIRT6 enzymatic activity. The assay was carried out in 384-well black well plates and all liquid handling was done using a robotic liquid handler. Purified recombinant SIRT6 (1 micromolar) was pre-incubated with each compound (or DMSO in control wells) for 15 minutes at room temperature. The first stage of the assay was initiated by adding a ‘substrate solution’ containing the myristoylated histone H3 peptide and NAD+(for final concentrations of 25 micromolar and 20 micromolar, respectively). After one hour incubation at 37° C., a Trypsin solution (6 mg/mL) was added for 30 minutes at room temperature. Fluorescence intensity was measured using a fluorescent plate reader (Tecan) with excitation at 370 nm and emission at 450 nm. The effect of each tested compound was evaluated by the change in the fluorescence intensity compared to control wells. […] To validate the primary screening results, each of the primary “hits” was re-tested, first at concentration of 20 micromolar in duplicates and later at a serial dilution ranging from 100 to 0.2 micromolar in triplicates.
Results of Assay—The results of the assay are given below in Tables 1-3.
Additional molecules were tested according to the methods and materials of Example 1. The amount tested was 20 uM for each molecule.

T1 sequence (Q8N6T7 whole entry): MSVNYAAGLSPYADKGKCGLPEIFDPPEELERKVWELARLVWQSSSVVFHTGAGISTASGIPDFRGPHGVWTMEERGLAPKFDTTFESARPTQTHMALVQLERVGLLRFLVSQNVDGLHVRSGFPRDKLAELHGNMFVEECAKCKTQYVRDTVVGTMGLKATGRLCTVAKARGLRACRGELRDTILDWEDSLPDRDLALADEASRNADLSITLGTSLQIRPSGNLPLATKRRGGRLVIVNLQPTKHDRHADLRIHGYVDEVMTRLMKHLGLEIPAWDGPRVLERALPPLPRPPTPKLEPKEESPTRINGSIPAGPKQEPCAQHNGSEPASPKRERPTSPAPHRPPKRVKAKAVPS

SMILES	% activity Max. conc. 100 uM (SIRT6 [2]) [%]	% Activity (SIRT6 [2]) [%]	also measured
Cc1cccc2sc(N(CCCN(C)C)C(=O)CCOc3ccccc3)nc12 [E677-0945]	255	–	activating effect for SIRT6 in secondary assays (in words) (SIRT6 [1]): validated; % activity 20 uM (SIRT6 [2]): 263%
CN(C)CCCN(C(=O)CCOc1ccccc1)c1nc2c(F)cccc2s1 [E677-1326]	252	–	activating effect for SIRT6 in secondary assays (in words) (SIRT6 [1]): validated; % activity 20 uM (SIRT6 [2]): 287%
C=C1Oc2ccc(C)cc2-c2oc(NCCOC)c(-c3ccc(OCC)cc3)c21 [F025-0098]	226	–	–
O=C(NCc1cccc(Cl)c1)c1noc2c1CSc1ccccc1-2 [E146-0990]	137	–	–
C=C(Cn1c(C)cc(C)c(C2=NC(c3ccccc3)=NC2)c1=O)NC1CCCCC1 [G744-0080]	221	–	% activity 20 uM (SIRT6 [2]): 53%
Cc1noc(-c2cccc(OC3CN(C(=O)c4cccc5[nH]ccc45)C3)c2)n1 [S051-0094]	47	–	–
CCN1CCCC1CNC(=O)C1CCN(c2cc(C)nc3c(-c4ccc(Cl)cc4)c(C)nn23)CC1 (stereo not shown) [C535-0969]	29	–	–
CN(C)CCCN(C(=O)CCOc1ccccc1)c1nc2ccc(Br)cc2s1 [E677-0691]	–	28	–
CCCC1(CO)CCCN1C(=O)c1ccc2cc[nH]c2c1 (stereo not shown) [P933-1294]	53	–	–
CN(C)CCCNC(=O)C1CCN(c2nc3ccc(-c4ccccc4)nc3s2)CC1 [T387-0668]	–	51	–
COC(=O)CSc1ccc(C#N)c(SCC(=O)OC)c1 [8012-3471]	–	23	–
COc1ccc(C(=O)Oc2ccc3c4c(c(=O)oc3c2)CCC4)cc1OC [2712-4069]	–	294	–
Cc1nc2cc(-c3ccccc3)nn2c(C(C)(C)C)c1C [5197-0134]	–	21	–
C=C1Cc2c(cccc2CC)C=C1c1csc(NC(=O)CCC(=O)NCCCN2CCC(C)CC2)n1 [K232-1782]	35	–	% activity 20 uM (SIRT6 [2]): 42%
COc1ccc(-c2nn3c(C)nnc3s2)cc1N [8018-6508]	18	–	–
Cc1c(OC(=O)C2CCCCC2)ccc2c3c(c(=O)oc12)CCCC3 [Y040-0748]	–	71	–
Cc1c(Cc2ccccc2)c(=O)oc2c(C)c(OC(=O)c3ccccc3)ccc12 [Y040-7711]	–	41	–
CNC(=O)N1CCc2c(sc3ncnc(NCCCOC)c23)C1 [S324-0365]	–	60	–
COc1ccc(C(=O)Oc2ccc3c(C)c(Cc4ccccc4)c(=O)oc3c2)cc1 [Y040-2026]	–	140	–
O=C(c1ccc(-c2ccc(N3CCCCC3)nc2)cc1)N1CCCC1 [M715-0156]	75	–	–
O=C(Nc1ccc2nncn2c1)c1cccc(Cl)c1 [M723-0069]	51	–	–
C=C(Cc1ccc2c(c1)C(C)=CC(C)(C)N2)Cc1cccc2ccccc12 [4477-0762]	56	–	–
COc1ccc(C)c2sc(N(CCN(C)C)C(=O)CCS(=O)(=O)c3ccccc3)nc12 [E676-2540]	–	59	–
CN(C)CCCN(C(=O)CCOc1ccccc1)c1nc2ccc(Cl)cc2s1 [B677-0564]	–	28	–
CN(C)CCN(C(=O)CCS(=O)(=O)c1ccccc1)c1nc2c(Cl)cccc2s1 [E676-1524]	–	80	–
